Reference: the supplement of paper PMC10307832

Tests used:
Test in all cases: relative viability (nuclei count vs DMSO), 5 days (fraction); higher = more cells survive
Halofuginone + OSI-027 = compound: O=C(C[C@H]1NCCC[C@@H]1O)Cn1cnc2cc(Br)c(Cl)cc2c1=O (racemic) [Halofuginone] + COc1cccc2cc(-c3nc([C@H]4CC[C@H](C(=O)O)CC4)n4ncnc(N)c34)[nH]c12 [OSI-027] (partner 0.5 µM)
Summary of the method: (§1)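 Relative viability is defined as nuclei in treated wells over nuclei in vehicle wells. Duplicate plates were run and medians reported. Lung cancer cell lines in 1536-well plates were dosed by pin tool one day after seeding, with one drug or with a fixed anchor-drug dose plus five library-drug doses (not always all listed) in √10 steps, and nuclei were counted after 5 days.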

Decitabine + Tozasertib = compound: Nc1ncn([C@H]2C[C@H](O)[C@@H](CO)O2)c(=O)n1 [Decitabine] + Cc1cc(Nc2cc(N3CCN(C)CC3)nc(Sc3ccc(NC(=O)C4CC4)cc3)n2)n[nH]1 [Tozasertib] (partner 0.1 µM)
Summary of the method: as §1

Cediranib + Pictilisib = compound: COc1cc2c(Oc3ccc4[nH]c(C)cc4c3F)ncnc2cc1OCCCN1CCCC1 [Cediranib] + CS(=O)(=O)N1CCN(Cc2cc3nc(-c4cccc5[nH]ncc45)nc(N4CCOCC4)c3s2)CC1 [Pictilisib] (partner 1 µM)
Summary of the method: as §1

[1] = compound: O=C(C[C@H]1NCCC[C@@H]1O)Cn1cnc2cc(Br)c(Cl)cc2c1=O (racemic) [Halofuginone] + O=C(CCCCCCC(=O)Nc1ccccc1)NO [Vorinostat] (partner 1 µM)
Summary of the method: as §1

In the case of UMC-11, the relative viability (Halofuginone + OSI-027; first compound 0.001 µM) is reported as 0.44, the relative viability (Halofuginone + OSI-027; first compound 0.003162 µM) is reported as 0.461 and the relative viability (Halofuginone + OSI-027; first compound 0.01 µM) is reported as 0.467. The relative viability (Halofuginone + OSI-027; first compound 0.03162 µM) was 0.46, the relative viability (Halofuginone + OSI-027; first compound 0.1 µM) was 0.368 and the relative viability (Decitabine + Tozasertib; first compound 0.04 µM) was 0.202. It also gave a relative viability (Decitabine + Tozasertib; first compound 0.1265 µM) of 0.186, a relative viability (Decitabine + Tozasertib; first compound 0.4 µM) of 0.186 and a relative viability (Decitabine + Tozasertib; first compound 1.265 µM) of 0.192. For the same cell line, the relative viability (Decitabine + Tozasertib; first compound 4 µM) was 0.183, the relative viability (Cediranib + Pictilisib; first compound 0.04 µM) was 1.01 and the relative viability (Cediranib + Pictilisib; first compound 0.1265 µM) was 0.316. It also gave a relative viability (Cediranib + Pictilisib; first compound 0.4 µM) of 0.707, a relative viability (Cediranib + Pictilisib; first compound 1.265 µM) of 0.466 and a relative viability (Cediranib + Pictilisib; first compound 4 µM) of 0.862. For the same cell line, the relative viability ([1]; first compound 0.001 µM) was 0.428, the relative viability ([1]; first compound 0.003162 µM) was 0.381 and the relative viability ([1]; first compound 0.01 µM) was 0.348. The relative viability ([1]; first compound 0.03162 µM) was 0.334 and the relative viability ([1]; first compound 0.1 µM) was 0.205.
